Drawing on patent US10947213B1 (Merck Patent GmbH, priority 2015, dated 2021), this text covers IC50 for 31 molecules.

Where a name gives a salt, the structure may show the parent alone.

In the experiment the target is T1, TLR7/NFKb HEK cells (Homo sapiens, UniProt Q9NYK1).
T1 construct: expressed in transfected cells; host or cells: HEK cells (TLR7/NFKb reporter line)
T1 sequence (Q9NYK1 27-1049): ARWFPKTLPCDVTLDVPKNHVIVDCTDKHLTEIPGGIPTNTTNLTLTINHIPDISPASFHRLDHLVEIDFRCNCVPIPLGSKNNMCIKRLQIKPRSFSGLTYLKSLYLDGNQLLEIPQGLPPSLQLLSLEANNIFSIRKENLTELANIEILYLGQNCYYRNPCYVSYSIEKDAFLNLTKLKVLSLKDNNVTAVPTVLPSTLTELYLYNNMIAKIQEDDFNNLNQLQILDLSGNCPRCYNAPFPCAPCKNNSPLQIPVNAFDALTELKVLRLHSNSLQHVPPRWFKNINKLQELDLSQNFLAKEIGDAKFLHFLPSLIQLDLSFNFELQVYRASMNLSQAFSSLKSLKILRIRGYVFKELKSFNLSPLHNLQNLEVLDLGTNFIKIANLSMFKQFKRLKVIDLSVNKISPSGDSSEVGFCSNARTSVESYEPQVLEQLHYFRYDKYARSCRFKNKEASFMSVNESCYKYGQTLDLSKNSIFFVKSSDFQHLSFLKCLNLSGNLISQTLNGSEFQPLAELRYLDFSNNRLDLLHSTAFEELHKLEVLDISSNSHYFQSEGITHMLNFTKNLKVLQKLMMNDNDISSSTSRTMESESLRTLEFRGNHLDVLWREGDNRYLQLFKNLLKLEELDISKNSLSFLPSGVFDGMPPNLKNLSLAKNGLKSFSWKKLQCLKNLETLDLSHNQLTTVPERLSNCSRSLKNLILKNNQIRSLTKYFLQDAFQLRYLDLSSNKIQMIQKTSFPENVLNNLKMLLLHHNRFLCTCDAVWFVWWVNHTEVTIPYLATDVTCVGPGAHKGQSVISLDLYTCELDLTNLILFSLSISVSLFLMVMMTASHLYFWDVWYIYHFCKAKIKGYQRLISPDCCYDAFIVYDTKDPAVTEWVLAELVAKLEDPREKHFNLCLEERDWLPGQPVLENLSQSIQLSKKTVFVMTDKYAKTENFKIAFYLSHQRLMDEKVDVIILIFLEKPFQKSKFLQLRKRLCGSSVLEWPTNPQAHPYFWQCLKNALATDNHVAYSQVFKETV
Description: HEK Cell Assay (TLR7/NFKb reporter, Steady-Glo luciferase readout). Format: cell-based. The following applies: 30 min compound preincubation, then R*48 agonist for 5 hours, read-out: Potency. How it is done:
Example 142: HEK Cell Assay
Into 384 CulturePlates (Corning 3707) was placed 5000 c/w of TLR7/NFKb HEK cells in 30 uL DMEM without Phenil red (gibco #31053) and 10% i.a. FCS and 2 mM L-ZGLutamin. The cells were incubated for 24 h at 37° C., 10% carbon dioxide and 90% relative humidity. 3 uL of controls, standards, and compounds were dispensed into wells, incubated for 30 min then 3 uL of R*48 agonist in 20 mM Hepes was added. After incubation for 5 hours, they were allowed to stand at room temperature for 15 min. To this was added 10 uL of Steady-Glo substrate reagent and shake assay plate for 5 min at 1500 rpm. The assay plate was allowed to sit for 30 min at room temperature and then the plate was read on EnVision.
With `C[C@H]1C[C@@H](NC(=O)CC2CCN(C)C2)CN(c2ccc(C(F)(F)F)c3ncccc23)C1` (stereo partly drawn) [Compound 283, N-[(3R,5S)-5-methyl-1-[8-(trifluoromethyl)quinolin-5-yl]piperidin-3-yl]-2-(1-methylpyrrolidin-3-yl)acetamide hydrochloride], the IC50 was under 1000 nM. With `N#Cc1ccc(N2CCC(C(=O)NCCN3CCCCC3)CC2)c2nccnc12` [Compound 440, 1-(8-Cyano-quinoxalin-5-yl)-piperidine-4-carboxylic Acid (2-piperidin-1-yl-ethyl)-amide] the figure was under 1000 nM; with `CC(C(=O)N[C@@H]1C[C@H](C)CN(c2ccc(C#N)c3nccnc23)C1)N1CC(O)C1` (stereo partly shown) [Compound 271], under 1000 nM. Next, `C[C@@H]1CN(c2ccnc3nccnc23)C[C@H](CN2CCC(N3CCCC3)CC2)O1` [Compound 56, (2R,6S)-2-methyl-4-(pyrido[2,3-b]pyrazin-8-yl)-6-((4-(pyrrolidin-1-yl)piperidin-1-yl)methyl)morpholine]: 1000 to 10000 nM; `C[C@H]1C[C@@H](NC(=O)CN2CCCN(C)CC2)CN(c2ccc(C(F)(F)F)c3ncccc23)C1` [Compound 290, 2-(4-methyl-1,4-diazepan-1-yl)-N-[(3R,5S)-5-methyl-1-[8-(trifluoromethyl)quinolin-5-yl]piperidin-3-yl]acetamide]: under 1000 nM.

With `C[C@H]1C[C@@H](NC(=O)CC2CCN(C)CC2)CN(c2ccc(F)c3ncccc23)C1` [Compound 471, N-[(3R,5S)-1-(8-Fluoro-quinolin-5-yl)-5-methyl-piperidin-3-yl]-2-(1-methyl-piperidin-4-yl)-acetamide], the IC50 is under 1000 nM. Next, `C[C@H]1C[C@@H](NC(=O)CO)CN(c2ccnc3nccnc23)C1` [Compound 15, 2-hydroxy-N-((3R,5S)-5-methyl-1-(pyrido[2,3-b]pyrazin-8-yl)piperidin-3-yl)acetamide]: over 10000 nM.

In the case of `CC1(C)C[C@@H](NC(=O)CN2CCOCC2)CN(c2ccc(C#N)c3nccnc23)C1` [Compound 214, N-[(3R)-1-(8-cyanoquinoxalin-5-yl)-5,5-dimethylpiperidin-3-yl]-2-(morpholin-4-yl)acetamide], the IC50 lay in the range of 1000 to 10000 nM.

For the molecule `C[C@H]1C[C@@H](NC(=O)Cc2c[nH]cn2)CN(c2ccnc3nccnc23)C1` [Compound 131, 2-(1H-imidazol-4-yl)-N-[(3R,5S)-5-methyl-1-[pyrido[2,3-b]pyrazin-8-yl]piperidin-3-yl]acetamide], the IC50 was over 10000 nM. With `COCCN[C@@H]1C[C@H](C)CN(c2ccc(C(F)(F)F)c3ncccc23)C1` [Compound 196, (3R,5S)—N-(2-methoxyethyl)-5-methyl-1-[8-(trifluoromethyl)quinolin-5-yl]piperidin-3-amine] the figure was under 1000 nM; with `C[C@@H]1C[C@H](C(=O)NCC2CCN(C)CC2)CN(c2ccc(C(F)(F)F)c3ncccc23)C1` (relative stereo) [Compound 547, cis-5-Methyl-1-(8-trifluoromethyl-quinolin-5-yl)-piperidine-3-carboxylic Acid (1-methyl-piperidin-4-ylmethyl)-amide], under 1000 nM; with `CC(C)[C@H](O)C(=O)N[C@@H]1C[C@H](C(F)(F)F)CN(c2ccnc3nccnc23)C1` [Compound 89, (2S)-2-hydroxy-3-methyl-N-[(3R,5S)-1-[pyrido[2,3-b]pyrazin-8-yl]-5-(trifluoromethyl)piperidin-3-yl]butanamide hydrochloride], over 10000 nM. With `C[C@H]1C[C@@H](NC(=O)C(N)C(F)(F)F)CN(c2ccc(C#N)c3nccnc23)C1` (single isomer, unassigned) [Compound 112, hydrochloride] the figure was 1000 to 10000 nM. For the molecule `C[C@H]1C[C@@H](N)CN(c2ccc(C#N)c3nccnc23)C1` [Compound 12, 8-((3R,5S)-3-amino-5-methylpiperidin-1-yl)quinoxaline-5-carbonitrile], the IC50 is under 1000 nM. Next, `COc1ccc(N2C[C@@H](C)C[C@@H](NC(=O)CC(C)(C)C)C2)c2cccnc12` [Compound 189, N-[(3R,5S)-1-(8-methoxyquinolin-5-yl)-5-methylpiperidin-3-yl]-3,3-dimethylbutanamide]: 1000 to 10000 nM. With `C[C@H]1C[C@@H](NC(=O)CC(C)(C)CN)CN(c2ccc(C(F)(F)F)c3nccnc23)C1` [Compound 301, 4-amino-3,3-dimethyl-N-[(3R,5S)-5-methyl-1-[8-(trifluoromethyl)quinoxalin-5-yl]piperidin-3-yl]butanamide], the IC50 is under 1000 nM. With `CC1(C)C[C@@H](NC(=O)C(N)C(F)(F)F)CN(c2ccc(C#N)c3nccnc23)C1` (single isomer, unassigned) [Compound 211] the figure was 1000 to 10000 nM. With `CN1CCC(NC2CC(C(F)(F)F)CN(c3ccc(C#N)c4nccnc34)C2)C1=O` (single isomer, unassigned) [Compound 224] the figure was 1000 to 10000 nM; with `C[C@H]1C[C@@H](NC(=O)C(O)C2CC2)CN(c2ccc(C(F)(F)F)c3ncccc23)C1` (single isomer, unassigned) [Compound 520], under 1000 nM. In the case of `CCN(CC)CC(=O)NCC1CCN(c2ccc(C(F)(F)F)c3ncccc23)CC1` [Compound 443, 2-Diethylamino-N-[1-(8-trifluoromethyl-quinolin-5-yl)-piperidin-4-ylmethyl]-acetamide], the IC50 is under 1000 nM. As for `CN1CCN(CC(=O)N[C@H]2C[C@@H](C3CC3)CN(c3ccc(C(F)(F)F)c4ncccc34)C2)CC1` (racemic) [Compound 338, cis-N-[5-cyclopropyl-1-[8-(trifluoromethyl)quinolin-5-yl]piperidin-3-yl]-2-(4-methylpiperazin-1-yl)acetamide], the IC50 is under 1000 nM. Next, `CC1(C)C[C@@H](NC(=O)C(N)C(F)(F)F)CN(c2ccc(C#N)c3nccnc23)C1` (single isomer, unassigned) [Compound 212]: 1000 to 10000 nM; `CC(C(=O)N[C@@H]1C[C@H](C)CN(c2ccc(C(F)(F)F)c3nccnc23)C1)N1CCC(O)CC1` (single isomer, unassigned) [Compound 371]: under 1000 nM; `CCN(CC)CCNC(=O)C1CCN(c2ccc(C#N)c3ncncc23)CC1` [Compound 397, 1-(8-Cyano-quinazolin-5-yl)-piperidine-4-carboxylic acid (2-diethylamino-ethyl)-amide]: 1000 to 10000 nM. Regarding `CC1CC(N)CN(c2ccc(F)c3nccnc23)C1` (single isomer, unassigned) [Compound 340], the IC50 fell in the range of 1000 to 10000 nM. Take `C[C@H]1C[C@@H](O)CN(c2ccc(C#N)c3nccnc23)C1` [Compound 81, 8-[(3R,5S)-3-hydroxy-5-methylpiperidin-1-yl]quinoxaline-5-carbonitrile]: the IC50 was under 1000 nM. Next, `C[C@H]1C[C@@H](NC(=O)CN(C)C)CN(c2ccc(C#N)c3ncncc23)C1` [Compound 447, N-[(3R,5S)-1-(8-Cyano-quinazolin-5-yl)-5-methyl-piperidin-3-yl]-2-dimethylamino-acetamide]: under 1000 nM; `C[C@H]1C[C@@H](NC(=O)C(C)(C)C2CCN(C)CC2)CN(c2ccc(C(F)(F)F)c3ncccc23)C1` [Compound 351, 2-methyl-N-[(3R,5S)-5-methyl-1-[8-(trifluoromethyl)quinolin-5-yl]piperidin-3-yl]-2-(1-methylpiperidin-4-yl)propanamide]: under 1000 nM; `C[C@H]1C[C@@H](N)CN(c2ccc(Cl)c3ncccc23)C1` [Compound 78, (3R,5S)-1-(8-chloroquinolin-5-yl)-5-methylpiperidin-3-amine]: under 1000 nM. For the molecule `CCN(CC)CCNC(=O)C1CCN(c2ccc(C#N)c3ncccc23)CC1` [Compound 407, 1-(8-Cyano-quinolin-5-yl)-piperidine-4-carboxylic acid (2-diethylamino-ethyl)-amide], the IC50 is under 1000 nM.

As to `CCC(C)C(=O)N[C@@H]1C[C@H](C)CN(c2ccnc3nccnc23)C1` (single isomer, unassigned) [Compound 156], the IC50 was over 10000 nM.
